Source: US20160297833A1, “THIENOPYRIMIDINES AS MKNK1 AND MKNK2 INHIBITORS” (BAYER PHARMA AKTIENGESELLSCHAFT, priority 2013, published 2016)

Biological target: T1, human full-length MKNK1 (Homo sapiens, UniProt Q9BUB5, T385D)
T1 construct: GST (N); purchased Carna Biosciences 02-145; host or cells: insect cells (baculovirus expression system)
Test: MKNK1 kinase high ATP assay (TR-FRET)
Format: biochemical
Conditions: Table 1; MKNK1 kinase high ATP assay, 2 mM ATP; read-out: MKNK1 IC50
In short: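 Full-length human MKNK1 (T385D) preincubated 15 min at 22 °C with compound in HEPES pH 7.5/MgCl2/DTT buffer; reaction with 2 mM ATP (final) and 0.06 μM biotinylated peptide (final), 30 min at 22 °C.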

T1 sequence (Q9BUB5 1-424 isoform Q9BUB5-2 T344D): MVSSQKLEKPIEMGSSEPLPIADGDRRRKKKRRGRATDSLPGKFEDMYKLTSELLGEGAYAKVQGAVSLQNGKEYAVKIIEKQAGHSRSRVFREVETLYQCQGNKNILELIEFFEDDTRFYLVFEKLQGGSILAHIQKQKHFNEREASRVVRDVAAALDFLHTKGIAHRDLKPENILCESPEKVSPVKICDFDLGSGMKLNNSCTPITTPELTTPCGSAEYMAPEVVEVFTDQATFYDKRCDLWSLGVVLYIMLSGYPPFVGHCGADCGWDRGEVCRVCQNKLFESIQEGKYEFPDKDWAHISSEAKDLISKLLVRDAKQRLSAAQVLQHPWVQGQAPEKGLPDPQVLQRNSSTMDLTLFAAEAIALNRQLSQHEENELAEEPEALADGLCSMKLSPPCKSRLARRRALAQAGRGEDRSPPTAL

IC50 [nM]	SMILES
0.3	CCOc1cc2[nH]ncc2cc1Nc1ncnc2sc3c(c12)CC[C@H](C(=O)N1CC[C@@H](N(C)C)C1)C3 [Example 190, [(3R)-3-(Dimethylamino)pyrrolidin-1-yl]{(7S)-4-[(6-ethoxy-1H-indazol-5-yl)amino]-5,6,7,8-tetrahydro[1]benzothieno[2,3-d]pyrimidin-7-yl}methanone]
1.4	CN(C)C(=O)[C@H]1CCc2c(sc3ncnc(Nc4cc5cn[nH]c5cc4OC(F)(F)F)c23)C1 [Example 191, (7S)—N,N-Dimethyl-4-{[6-(trifluoromethoxy)-1H-indazol-5-yl]amino}-5,6,7,8-tetrahydro[1]benzothieno[2,3-d]pyrimidine-7-carboxamide]
2.2	CCCSc1cc2[nH]ncc2cc1Nc1ncnc2sc3c(c12)CC[C@H](C(=O)N(C)C)C3 [Example 192, (7S)—N,N-Dimethyl-4-{[6-(propylsulfanyl)-1H-indazol-5-yl]amino}-5,6,7,8-tetrahydro[1]benzothieno[2,3-d]pyrimidine-7-carboxamide]
222	CN(C)C(=O)[C@H]1CCc2c(sc3ncnc(Nc4cc5cn[nH]c5cc4OCCN4CCCC4=O)c23)C1 [Example 193, (7S)—N,N-Dimethyl-4-({6-[2-(2-oxopyrrolidin-1-yl)ethoxy]-1H-indazol-5-yl}amino)-5,6,7,8-tetrahydro[1]benzothieno[2,3-d]pyrimidine-7-carboxamide]
44.3	CN(C)C(=O)[C@H]1CCc2c(sc3ncnc(Nc4cc5cn[nH]c5cc4OCCN4CCOC4=O)c23)C1 [Example 194, (7S)—N,N-Dimethyl-4-({6-[2-(2-oxo-1,3-oxazolidin-3-yl)ethoxy]-1H-indazol-5-yl}amino)-5,6,7,8-tetrahydro[1]benzothieno[2,3-d]pyrimidine-7-carboxamide]
0.9	O=C([C@H]1CCc2c(sc3ncnc(Nc4cc5cn[nH]c5cc4N4CCCC4)c23)C1)N1CCC1 [Example 195, Azetidin-1-yl[(7S)-4-{[6-(pyrrolidin-1-yl)-1H-indazol-5-yl]amino}-5,6,7,8-tetrahydro[1]benzothieno[2,3-d]pyrimidin-7-yl]methanone]
0.1	CN(C)c1cc2[nH]ncc2cc1Nc1ncnc2sc3c(c12)CC[C@H](C(=O)N1CCC1)C3 [Example 196, Azetidin-1-yl[(7S)-4-{[6-(dimethylamino)-1H-indazol-5-yl]amino}-5,6,7,8-tetrahydro[1]benzothieno[2,3-d]pyrimidin-7-yl]methanone]
0.1	CCN(OC)C(=O)[C@H]1CCc2c(sc3ncnc(Nc4cc5cn[nH]c5cc4OC)c23)C1 [Example 197, (7S)—N-Ethyl-N-methoxy-4-[(6-methoxy-1H-indazol-5-yl)amino]-5,6,7,8-tetrahydro[1]benzothieno[2,3-d]pyrimidine-7-carboxamide]
0.2	COc1cc2[nH]ncc2cc1Nc1ncnc2sc3c(c12)CC[C@H](C(=O)N(C)OC)C3 [Example 198, (7S)—N-Methoxy-4-[(6-methoxy-1H-indazol-5-yl)amino]-N-methyl-5,6,7,8-tetrahydro[1]benzothieno[2,3-d]pyrimidine-7-carboxamide]
0.2	CN(C)C(=O)[C@H]1CCc2c(sc3ncnc(Nc4cc5cn[nH]c5cc4OC4CCCC4)c23)C1 [Example 199, (7S)-4-{[6-(Cyclopentyloxy)-1H-indazol-5-yl]amino}-N,N-dimethyl-5,6,7,8-tetrahydro[1]benzothieno[2,3-d]pyrimidine-7-carboxamide]
1.6	CN(C)C(=O)[C@H]1CCc2c(sc3ncnc(Nc4cc5cn[nH]c5cc4OC4CCOCC4)c23)C1 [Example 200, (7S)—N,N-Dimethyl-4-{[6-(tetrahydro-2H-pyran-4-yloxy)-1H-indazol-5-yl]amino}-5,6,7,8-tetrahydro[1]benzothieno[2,3-d]pyrimidine-7-carboxamide]
23.6	CN(C)C(=O)[C@H]1CCc2c(sc3ncnc(Nc4cc5cn[nH]c5cc4OCC4CCOCC4)c23)C1 [Example 201, (7S)—N,N-Dimethyl-4-{[6-(tetrahydro-2H-pyran-4-ylmethoxy)-1H-indazol-5-yl]amino}-5,6,7,8-tetrahydro[1]benzothieno[2,3-d]pyrimidine-7-carboxamide]
1	CN(C)C(=O)[C@H]1CCc2c(sc3ncnc(Nc4cc5cn[nH]c5cc4OC4CCCCC4)c23)C1 [Example 202, (7S)-4-{[6-(Cyclohexyloxy)-1H-indazol-5-yl]amino}-N,N-dimethyl-5,6,7,8-tetrahydro[1]benzothieno[2,3-d]pyrimidine-7-carboxamide]
17.1	CN(C)CCCOc1cc2[nH]ncc2cc1Nc1ncnc2sc3c(c12)CC[C@H](C(=O)N(C)C)C3 [Example 203, (7S)-4-({6-[3-(Dimethylamino)propoxy]-1H-indazol-5-yl}amino)-N,N-dimethyl-5,6,7,8-tetrahydro[1]benzothieno[2,3-d]pyrimidine-7-carboxamide]
0.9	COc1cc2[nH]ncc2cc1Nc1ncnc2sc3c(c12)CC[C@H](C(=O)N(C)CC(C)(C)OC)C3 [Example 204, (7S)-4-[(6-Methoxy-1H-indazol-5-yl)amino]-N-(2-methoxy-2-methylpropyl)-N-methyl-5,6,7,8-tetrahydro[1]benzothieno[2,3-d]pyrimidine-7-carboxamide]
0.9	COc1cc2[nH]ncc2cc1Nc1ncnc2sc3c(c12)CC[C@H](C(=O)N1CC=CC1)C3 [Example 206, 2,5-Dihydro-1H-pyrrol-1-yl{(7S)-4-[(6-methoxy-1H-indazol-5-yl)amino]-5,6,7,8-tetrahydro[1]benzothieno[2,3-d]pyrimidin-7-yl}methanone]
0.2	COc1cc2[nH]ncc2cc1Nc1ncnc2sc3c(c12)CC[C@H](C(=O)N1CCSCC1)C3 [Example 207, {(7S)-4-[(6-methoxy-1H-indazol-5-yl)amino]-5,6,7,8-tetrahydro[1]benzothieno[2,3-d]pyrimidin-7-yl}(thiomorpholin-4-yl)methanone]
0.6	COc1cc2[nH]ncc2cc1Nc1ncnc2sc3c(c12)CC[C@H](C(=O)N1CCC(F)(F)C1)C3 [Example 208, (3,3-Difluoropyrrolidin-1-yl){(7S)-4-[(6-methoxy-1H-indazol-5-yl)amino]-5,6,7,8-tetrahydro[1]benzothieno[2,3-d]pyrimidin-7-yl}methanone]
0.5	COc1cc2[nH]ncc2cc1Nc1ncnc2sc3c(c12)CC[C@H](C(=O)N1CC2CC2C1)C3 (stereo partly drawn) [Example 209, 3-Azabicyclo[3.1.0]hex-3-yl{(7S)-4-[(6-methoxy-1H-indazol-5-yl)amino]-5,6,7,8-tetrahydro[1]benzothieno[2,3-d]pyrimidin-7-yl}methanone]
0.4	COc1cc2[nH]ncc2cc1Nc1ncnc2sc3c(c12)CC[C@H](C(=O)N1C[C@H](C)O[C@@H](C)C1)C3 [Example 210, [(2S,6S)-2,6-Dimethylmorpholin-4-yl]{(7S)-4-[(6-methoxy-1H-indazol-5-yl)amino]-5,6,7,8-tetrahydro[1]benzothieno[2,3-d]pyrimidin-7-yl}methanone]
0.2	COc1cc2[nH]ncc2cc1Nc1ncnc2sc3c(c12)CC[C@H](C(=O)N1C[C@@H](C)O[C@H](C)C1)C3 [Example 211, [(2R,6R)-2,6-Dimethylmorpholin-4-yl]{(7S)-4-[(6-methoxy-1H-indazol-5-yl)amino]-5,6,7,8-tetrahydro[1]benzothieno[2,3-d]pyrimidin-7-yl}methanone]
0.3	COc1cc2[nH]ncc2cc1Nc1ncnc2sc3c(c12)CC[C@H](C(=O)N1CCCCO1)C3 [Example 212, {(7S)-4-[(6-Methoxy-1H-indazol-5-yl)amino]-5,6,7,8-tetrahydro[1]benzothieno[2,3-d]pyrimidin-7-yl}(1,2-oxazinan-2-yl)methanone]
0.4	COc1cc2[nH]ncc2cc1Nc1ncnc2sc3c(c12)CC[C@H](C(=O)N1CCCO1)C3 [Example 213, {(7S)-4-[(6-Methoxy-1H-indazol-5-yl)amino]-5,6,7,8-tetrahydro[1]benzothieno[2,3-d]pyrimidin-7-yl}(1,2-oxazolidin-2-yl)methanone]
1.2	CCON(C)C(=O)[C@H]1CCc2c(sc3ncnc(Nc4cc5cn[nH]c5cc4OC)c23)C1 [Example 214, (7S)—N-Ethoxy-4-[(6-methoxy-1H-indazol-5-yl)amino]-N-methyl-5,6,7,8-tetrahydro[1]benzothieno[2,3-d]pyrimidine-7-carboxamide]
1	COc1cc2[nH]ncc2cc1Nc1ncnc2sc3c(c12)CC[C@H](C(=O)N(C)CCC(C)(C)O)C3 [Example 215, (7S)—N-(3-Hydroxy-3-methylbutyl)-4-[(6-methoxy-1H-indazol-5-yl)amino]-N-methyl-5,6,7,8-tetrahydro[1]benzothieno[2,3-d]pyrimidine-7-carboxamide]
0.5	COc1cc2[nH]ncc2cc1Nc1ncnc2sc3c(c12)CC[C@H](C(=O)N(C)S(C)(=O)=O)C3 [Example 216, (7S)-4-[(6-Methoxy-1H-indazol-5-yl)amino]-N-methyl-N-(methylsulfonyl)-5,6,7,8-tetrahydro[1]benzothieno[2,3-d]pyrimidine-7-carboxamide]
0.3	COCCN(C)C(=O)[C@H]1CCc2c(sc3ncnc(Nc4cc5cn[nH]c5cc4OC)c23)C1 [Example 217, (7S)—N-(2-Methoxyethyl)-4-[(6-methoxy-1H-indazol-5-yl)amino]-N-methyl-5,6,7,8-tetrahydro[1]benzothieno[2,3-d]pyrimidine-7-carboxamide]
0.2	CCOc1cc2[nH]ncc2cc1Nc1ncnc2sc3c(c12)CC[C@H](C(=O)N1CC(N(C)C)C1)C3 [Example 218, [3-(Dimethylamino)azetidin-1-yl]{(7S)-4-[(6-ethoxy-1H-indazol-5-yl)amino]-5,6,7,8-tetrahydro[1]benzothieno[2,3-d]pyrimidin-7-yl}methanone]
